In patent US11795460B2, “Compositions and methods for TTR gene editing and treating ATTR amyloidosis” (Intellia Therapeutics, Inc., priority 2017, dated 2023):

Legend:
off-target genomic sites = experiment: Off-target oligo insertion based assay in HEK293_Cas9 cells, dgRNAs and sgRNAs (Tables 23, 24); type: cell-based, human; conditions: Table 23; TTR dgRNAs in HekCas9 cells, oligo insertion based assay
How it was run: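 In HEK293 cells constitutively expressing Spy Cas9, crRNA (15 nM) plus trRNA (15 nM), or modified sgRNAs, were lipofected with donor oligo (10 nM). Genomic DNA was collected at 24 h, and oligo-insertion libraries were sequenced on MiSeq/HiSeq to map potential off-target cleavage sites.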

TTR [1] = experiment: TTR editing in HEK293_Cas9 cells transfected with dgRNAs (Table 4); type: cell-based, human; conditions: HEK293_Cas9 cells (constitutively express Spy Cas9) transfected with dgRNAs
How it was run: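 Spy Cas9-expressing HEK293 cells were transfected by lipofection with crRNA (25 nM) plus trRNA (25 nM) and harvested at 24, 48 or 72 h. The target site was PCR-amplified and sequenced on MiSeq. Percent editing is reads with indels or substitutions over total reads.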

TTR [2] = experiment: TTR editing in primary human hepatocytes transfected with Spy Cas9 mRNA and dgRNAs (Table 9); type: cell-based; conditions: dgRNA co-transfected with Spy Cas9 mRNA (SEQ ID NO:2)
How it was run: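 PHH sequentially lipofected with Spy Cas9 mRNA (100 ng), then crRNA plus tracrRNA (25 nM each) dual-guide lipoplex. Cells harvested 24, 48 or 72 h post-transfection; TTR target amplicons sequenced on Illumina MiSeq, editing given as percent reads with indels or substitutions over total reads.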

Row | Sequence | # Sites (off-target integration sites detected) (off-target genomic sites) | Avg % Deletion (TTR [1]) [%] | Avg % Edit (TTR [1]) [%] | Avg % Insert (TTR [1]) [%] | Avg % Deletion (TTR [2]) [%] | Avg % Edit (TTR [2]) [%] | Avg % Insert (TTR [2]) [%]
1 | GUGAGUCUGGAGAGCUGCAU (tested as dual guide RNA, chemistry not given here) [CR003360] | 0 | 19.98 | 22.68 | 2.70 | 0.90 | 14.90 | 14.13
2 | CAGAGGACACUUGGAUUCAC (tested as dual guide RNA, chemistry not given here) [CR003343] | 2 | 19.53 | 24.36 | 4.82 | 2.60 | 55.03 | 52.40
3 | AGUGAGUCUGGAGAGCUGCA (tested as dual guide RNA, chemistry not given here) [CR003359] | 6 | 19.40 | 37.75 | 18.35 | 7.33 | 32.93 | 25.67
4 | CAUUGAUGGCAGGACUGCCU (tested as dual guide RNA, chemistry not given here) [CR003347] | 1 | 20.50 | 21.45 | 0.95 | 0.17 | 41.47 | 41.33
